Reference: patent US5914329A, “Dimesylate salts of neuropeptide Y ligands” (Pfizer Inc., priority 1997, dated 1999)
Counter-ions that a name gives are not always drawn.

How the values were obtained:
[1] = Bioavailability (species not stated); details: in words
[2] = Chemical stability; format: physicochemical
[3] = Aqueous solubility of salts
[4] = Bioavailability in dogs
[5] = Hygroscopicity evaluation at high humidities; format: physicochemical; details: humidities below 90%

CCOc1cccc(C2(N3CCN(c4ccccc4)CC3)CCC(C)CC2)c1 (stereo not drawn) [compound I, dimesylate salt of cis-1-(3-ethoxyphenyl)-1-(4-phenylpiperazin-1-yl)-4-methyl-cyclohexane]
bioavailability [1]: good
stability ([2]; in words): good
solubility ([3]; solubility, dimesylate salt, medium not stated): 31 mg/mL

CCOc1cccc(C2(N3CCN(c4ccccc4)CC3)CCC(C)CC2)c1 (stereo not drawn) [dihydrochloride, cis-1-(3-ethoxyphenyl)-1-(4-phenylpiperazin-1-yl)-4-methyl-cyclohexane, reference compound]
stability in the solid state ([2]; solid state, in words): unstable
bioavailability in dogs [4]: 75%
solubility ([3]; water, water solubility): 1 mg/mL

CCOc1cccc(C2(N3CCN(c4ccccc4)CC3)CCC(C)CC2)c1 (stereo not drawn) [form A, Dimesylate salt of cis-1-(3-ethoxyphenyl)-1-(4-phenylpiperazin-1-yl)-4-methylcyclohexane]
hygroscopicity [5]: non-hygroscopic
Chemical stability ([2]; 40° C. in 75% RH): no detectable degradation
Chemical stability ([2]; 70° C., at ambient humidity): no detectable degradation
Chemical stability ([2]; light box under fluorescent light): no detectable degradation
solubility ([3]; water, Aqueous solubility, isolated form A of the dimesylate salt): 31 mg/mL

CCOc1cccc(C2(N3CCN(c4ccccc4)CC3)CCC(C)CC2)c1 (stereo not drawn) [fumarate salt, cis-1-(3-ethoxyphenyl)-1-(4-phenylpiperazin-1-yl)-4-methyl-cyclohexane, reference compound]
solubility ([3]; water, solubility in water, in water): 0.04 mg/mL
